We go through 17 compounds from US8278437B2, “Hydroxypropyl-sulfobutyl-beta-cyclodextrin, the preparation method, the analytical method, and the pharmacutical application thereof” (priority 2005, dated 2012).

In brackets after ≈: the same amount, converted by molar mass. Several values for one entry are separate records, joined by “and”; a condition that tells them apart may be missing. Equal values may be shown once. Where a name gives a salt, the structure may show the parent alone. Read-outs that look alike come from different tables or passages of the source.

Data set [1] concerns mouse. The note with it: cited from earlier work.
A further data set concerns rat. The settings on record: cited from earlier work.
The nature of data set [2]: Solubilizing test of puerarin. The note with it: 25 °C, pH 6.86, aqueous buffer, thermodynamic from solid. It is filed as physicochemical. An excerpt: The standard curve was plotted by concentration C against A (μg/mL) to obtain A=66.608 C+0.0017 R2=0.9999.
Data set [3] concerns mouse. The note with it: 40 mg/kg, 120 mg/kg and 400 mg/kg; cited from earlier work.
The subject of a further data set is mouse stomach intestine. The settings on record: 120 mg/kg and 400 mg/kg; cited from earlier work.
Data set [4] can be described thus: Inclusion constant with ibuprofen, UV spectrophotometry. The note with it: PBS pH 6.86, 265 nm. In kind it is binding.
Data set [5] can be described thus: Inclusion constant with prazosin hydrochloride, UV spectrophotometry. The settings on record: PBS pH 6.86, 250 nm. It is filed as binding. An excerpt: PBS of PH6.86 was used to prepare hydrochloride prazosin dilute solution, and this dilute solution was used to prepare HP4-SBE2-β-CD sample solution. […] A line by 1/ΔA against 1/[CD]0 was plotted, and the inclusion constant Ka of prazosin hydrochloride/HP4-SBE2-β-CD can be obtained according to the value of intercept/slope.

The subject of a further data set is red blood cells. The experiment in a line: Hemolytic test. It is filed as cell-based. The settings on record: 5% rabbit red blood cell suspension, 37° C., 30 min. On the procedure:
Under the present invention, using β-CD, HP-β-CD, SBE7-β-CD, SBE4-β-CD as controls, the hemolytic test results of 11 kinds of compounds are selected, shown in Table 13 and FIG. 9-FIG. 11.
10 ml of fresh rabbit blood were fetched to a clean conical flask, stirred with glass rod for 10 min to remove the fibers, then added with about 20 times of normal saline solution and placed in the centrifuge, 1500 rps/min, for about 3 min, then the supernatant was removed, washed repeated for several times until the supernatant solution becomes clear. The prepared red blood cells were prepared to 5% of suspension by normal saline solution. (Reference: State Drug Administration, Technical requirement of TCM injection study, Technical requirement of TCM new drug study, 1999, 11, 12)

For data set [6] the following is noted: 10-100.0 mg/kg; cited from earlier work.
Data set [7] in a line: Inclusion constant with puerarin, UV spectrophotometry. In kind it is binding. The note with it: PBS pH 6.86, 250 nm. An excerpt: PBS of PH6.86 was used to prepare puerarin dilute solution, and this dilute solution was used to prepare HP4-SBE2-β-CD sample solution. […] A straight line by 1/ΔA against 1/[CD]0 was plotted, and the inclusion constant Ka of puerarin/HP4-SBE2-β-CD can be obtained according to the value of intercept/slope.

The next data set relates to dog. The settings on record: cited from earlier work.
The test system of the next data set is Kunming mice. Nature of the data set: Effect on mouse's spontaneous activities. It is filed as in vivo. The note with it: positive control 2 mg/kg. On the procedure: (Bibliography: 1. Xu, Shuyun Pharmacological Test Methodology, 2nd version, P.641, People Health Press, Beijing, 1991. 2. Medicine Secretary for the Ministry of Health, Guidelines on Preclinical Study of New Pharmaceuticals (weaten drugs), P. 42, July, 1993.) • 1. […] Effect on mouse's spontaneity times: (see Table 15).
Effect on the frequency of mice' spontaneous activities: healthy mice, and 50 mice whose frequency of activities was 220-320 within 5 min were selected and randomly divided into five groups, the establishment of dosages were the same as the above. The frequency of activity at o min were measured before drug administration, and then were conducted by intragastric administration, 30, 60, 120 and 180 min later, the frequency of activities within 5 min was measured and recorded respectively, then compared with that of the control group. The measuring time was the period between 9:00 am and 4:00 pm each day. A Six-light channel spontaneous activity instrument was used for one mouse, kept at 24-26° C. of room temperature of; and kept quiet; the test was carried out after the test boxes were covered with black cloth.

Another data set is described as follows: physchem. The settings on record: phosphate buffer, 25 °C, pH 6.86, aqueous buffer, thermodynamic from solid.

As for `CC(=O)OCC(COC(C)=O)OC(C)=O` [Glyceryl triacetate], in the data set on mouse [1] (subcutaneous injection), the LD50 is 2670 mg/kg and 3250 mg/kg.

Regarding `CC(O)CCO` (stereo not drawn) [1,3-Butylene glycol], the LD50 was 22.8 mg/kg and 23.31 mg/kg in the data set on rat (Oral); 20.06 mg/kg and 16.51 mg/kg with rat (subcutaneous injection).

As for `O=c1c(-c2ccc(O)cc2)coc2c([C@@H]3O[C@H](CO)[C@@H](O)[C@H](O)[C@H]3O)c(O)ccc12` [puerarin], the solubility (commonly the concentration that dissolves in the medium under given conditions) at 12 h in data set [2] amounted to 5800 µg/mL (≈ 13.9 mM).

Take `C[S+](C)[O-]` [DMSO]: the LD50 was 16500 mg/kg with mouse [1] (Oral), 3000 mg/kg in the data set on mouse [1] (intraperitoneal injection), 5750 mg/kg in the data set with mouse [1] (intravenous injection) and 14 mg/kg in the data set with mouse [1] (subcutaneous injection).

hydroxypropyl-β-CD [HP-β-CD]: in the data set on mouse [3], the “effect on mouse fasting blood glucose” value is given as “no obvious effect on mouse fasting blood glucose”. Moreover, the “impellent function of mouse stomach intestine” value in the data set on mouse stomach intestine is recorded as “slight reduction”. Moreover, the results for the “inclusion constant Ka” value in data set [4], in [5] and in data set [7] were 221, 597 and 345, respectively. Further, the “Concentration when the degree of hemolysis of 50 percent” value in the data set on red blood cells was 12610 µg/mL. The same compound showed a concentration without hemolysis in the data set with red blood cells of 8160 µg/mL. Moreover, the “effect on respiratory amplitude, respiratory frequency, blood pressure and ECG” value in data set [6] is recorded as “no obvious effect”.

Take `OC[C@H]1O[C@@H]2O[C@H]3[C@H](O)[C@@H](O)[C@@H](O[C@H]4[C@H](O)[C@@H](O)[C@@H](O[C@H]5[C@H](O)[C@@H](O)[C@@H](O[C@H]6[C@H](O)[C@@H](O)[C@@H](O[C@H]7[C@H](O)[C@@H](O)[C@@H](O[C@H]8[C@H](O)[C@@H](O)[C@@H](O[C@H]1[C@H](O)[C@H]2O)O[C@@H]8CO)O[C@@H]7CO)O[C@@H]6CO)O[C@@H]5CO)O[C@@H]4CO)O[C@@H]3CO` [β-CD, β-cyclodextrin]: in the data set with red blood cells, the “Concentration when the degree of hemolysis of 50 percent” value came out at 1140 µg/mL and the concentration without hemolysis came out at 280 µg/mL. For the same compound, the LD50 in the data set on mouse [1] (intraperitoneal injection) is given as 788 mg/kg.

For the compound `OC[C@@H](O)[C@@H](O)[C@H](O)[C@H](O)CO` [Mannitol], the LD50 in the data set on rat (Oral) is recorded as 17 mg/kg; with mouse [1] (Oral), 22 mg/kg; in the data set with mouse [1] (intraperitoneal injection), 14 mg/kg; in the data set with mouse [1] (intravenous injection) it was 17 mg/kg.

Regarding `CC(O)CO` (stereo not drawn) [Propylene glycol], the LD50 is 22 mg/kg in the data set with dog (Oral) and 26 mg/kg with dog (intravenous injection).

Regarding `CN(C)CCCN1c2ccccc2Sc2ccc(Cl)cc21` [chloropromazine], the “frequency of spontaneous activities” value was 302 ± 75 times/5 min in the data set on Kunming mice (0 min); 57 ± 40 times/5 min in the data set with Kunming mice (30 min); 16 ± 20 times/5 min with Kunming mice (60 min); 22 ± 19 times/5 min in the data set with Kunming mice (120 min); 25 ± 28 times/5 min in the data set on Kunming mice (180 min).

For PEG400, the LD50 in the data set on mouse [1] (intraperitoneal injection) is listed as 4200 mg/kg; in the data set on mouse [1] (subcutaneous injection), 10 (ml).

For `CCC(C)(C)O` [amyl alcohol-tert], the LD50 in the data set with rat (Oral) is given as 1000 mg/kg; with mouse [1] (subcutaneous injection), 2100 mg/kg.

Take Sodium deoxycholate: the LD50 is listed as 815 mg/kg with mouse [1] (Oral), 1400 mg/kg with mouse [1] (intraperitoneal injection) and 75 mg/kg in the data set with mouse [1] (subcutaneous injection).

As for `CN(C)C=O` [DMF], the LD50 is 2800 mg/kg in the data set on mouse [1] (Oral), 1400 mg/kg with mouse [1] (intraperitoneal injection) and 2000 mg/kg with mouse [1] (intravenous injection). In addition, the LDLo in the data set with mouse [1] (subcutaneous injection) is 1000 mg/kg.

Regarding `O=C(OCc1ccccc1)c1ccccc1` [Benzyl benzoate], the LD50 was 1400 mg/kg with mouse [1] (Oral) and 4000 mg/kg with mouse [1] (cutaneous absorption).

Consider `OCc1ccccc1` [Benzyl alcohol], for which the results for the LD50 with rat (Oral) and in the data set on mouse [1] (Oral) were 1230 mg/kg and 1580 mg/kg, respectively.

In the data set “physchem”, `COc1cc2nc(N3CCN(C(=O)c4ccco4)CC3)nc(N)c2cc1OC` [prazosin hydrochloride] came in with a solubility at 12 h of 0.0495 µg/mL.

`CCOC(=O)C(C)O` (stereo not drawn) [ethyl lactate]: the LD50 with mouse [1] (intravenous injection) was 0.6 (ml); in the data set with mouse [1] (subcutaneous injection), 2.5 (ml).
